From ChEMBL document CHEMBL1201862, “PubChem BioAssay data set” (2004)
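Grown in 96-well plates, cells were treated for 48 hours with each compound at five concentrations. Insufficient inhibition: endpoint recorded as highest concentration tested. The concentration for 50% growth inhibition is given as GI50.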 The source made the active and inactive calls. Rule as the data show it: active = GI50 up to about 1.1 µM and inactive = higher.

What was measured:
Assay in all cases: growth of human tumour cells (NCI), 48 h
786-0 = tested on: 786-0
ACHN = tested on: ACHN
HCC 2998 = tested on: HCC 2998
HCT-116 = tested on: HCT-116
HOP-62 = tested on: HOP-62
M14 = tested on: M14
MDA-MB-435 = tested on: MDA-MB-435
MDA-N = tested on: MDA-N
NCI-H226 = tested on: NCI-H226
NCI-H460 = tested on: NCI-H460
OVCAR-3 = tested on: OVCAR-3
OVCAR-4 = tested on: OVCAR-4
OVCAR-8 = tested on: OVCAR-8
PC-3 = tested on: PC-3
SK-MEL-28 = tested on: SK-MEL-28
SK-MEL-5 = tested on: SK-MEL-5
SNB-19 = tested on: SNB-19
U-251 = tested on: U-251
UACC-62 = tested on: UACC-62
UO-31 = tested on: UO-31

Measured: GI50

Cn1c2ccccc2c2ccc3c(c21)C(=O)c1ccc2c4ccccc4n(C)c2c1C3=O
inactive: 786-0 99.1 µM | ACHN > 100 µM | HCC 2998 > 100 µM | HCT-116 > 96.2 µM | HOP-62 > 100 µM | M14 > 100 µM | MDA-MB-435 > 100 µM | MDA-N > 100 µM | NCI-H226 > 100 µM | NCI-H460 > 100 µM | OVCAR-3 > 65 µM | OVCAR-4 > 65.5 µM | OVCAR-8 > 100 µM | PC-3 > 100 µM | SK-MEL-28 > 100 µM | SK-MEL-5 > 100 µM | SNB-19 > 100 µM | U-251 > 100 µM | UACC-62 > 100 µM | UO-31 > 100 µM

O=C(/C=C/c1ccc(O)c(O)c1)NC(COC(=O)/C=C/c1ccc(O)c(O)c1)C(=O)O (stereo not given)
inactive: 786-0 > 100 µM | ACHN > 100 µM | HCC 2998 > 100 µM | HCT-116 > 100 µM | HOP-62 > 100 µM | M14 > 100 µM | MDA-MB-435 > 100 µM | MDA-N > 100 µM | NCI-H226 > 100 µM | NCI-H460 > 100 µM | OVCAR-3 > 100 µM | OVCAR-4 > 100 µM | OVCAR-8 > 100 µM | PC-3 > 100 µM | SK-MEL-28 > 100 µM | SK-MEL-5 > 100 µM | SNB-19 > 100 µM | U-251 > 100 µM | UACC-62 > 100 µM | UO-31 > 100 µM

Oc1ccccc1/C=N/c1nc2cc3sc(/N=C/c4ccccc4O)nc3cc2s1
inactive: 786-0 > 81.1 µM | ACHN 46.3 µM | HCC 2998 > 100 µM | HCT-116 38.9 µM | HOP-62 > 80.4 µM | M14 97.1 µM | MDA-MB-435 > 95.9 µM | MDA-N > 100 µM | NCI-H226 26.4 µM | NCI-H460 4.61 µM | OVCAR-3 > 100 µM | OVCAR-4 69.7 µM | OVCAR-8 > 100 µM | PC-3 > 89.3 µM | SK-MEL-28 > 100 µM | SK-MEL-5 > 47.9 µM | SNB-19 > 100 µM | U-251 > 70.5 µM | UACC-62 > 100 µM | UO-31 > 35.9 µM
